SMILES strings stand for the structures. Values after ≈ are worked out from the molar mass of the structure shown.

Common to all, as to format: physicochemical
The nature of data set [1]: Polymorphic form / crystallinity after suspension, jet milling or microfluidization (XRPD). The following applies: for crystallinity and polymorphic form after jet milling: XRPD. How it is done:
The following processes may be used to prepare an appropriate particle size of ZGN-440 (i) microfluidization; (ii) jet milling; (iii) ball milling; and suspension homogenization.
(§1) Jet milling was conducted with ZGN-440 having an initial D90 of 211.9 μm prior to jet milling.
(§2) For FPS5, jet milled ZGN-440 was recovered in greater than 90% yield. […] The particle size generated is suitable for use with a 29-gauge to 31-gauge needle.

A short description of data set [2]: Particle size of jet milled ZGN-440. The following applies: for D10 / D50 / D90: after jet milling. Here is the method: as §1, §2
Another data set can be described thus: Storage of Form C. As to conditions: about three days of storage at either 5° C. or ambient temperature. An excerpt:
In other embodiments, Form C of 6-O-(4-dimethylaminoethoxy)cinnamoyl fumagillol, free base has an IR absorption spectrum having characteristic peaks at about at least one of: 831, 894, 1106, 1159, 1249, 1287, 1512, 1602, 1631, and 1707 cm^−1. In this context, the term “about” means that the cm^−1 values can vary, e.g. up to ±5 cm^−1. In certain embodiments, Form C of 6-O-(4-dimethylaminoethoxy)cinnamoyl fumagillol, free base is characterized by the IR absorption spectrum shown in FIG. 15 of U.S. Pat. No. 8,349,891, U.S. Pat. No. 8,735,447, and WO 2012/064838. […] Accordingly, in certain embodiments, the compositions described herein can include Form C and/or Form A derived from Form C.

A short description of another data set: physchem. The source says:
In some embodiments, the crystalline form of Form A 6-O-(4-dimethylaminoethoxy) cinnamoyl fumagillol, free base has an IR absorption spectrum having at least one or more characteristic peaks at about 2971, 2938, 2817, 2762, 1163, 1103, 832 cm^−1. In this context, the term “about” means that the cm^−1 values can vary, e.g., up to ±5 cm^−1. In certain embodiments, the crystalline form of Form A 6-O-(4-dimethylaminoethoxy)cinnamoyl fumagillol has IR absorption spectrum shown in FIG. 5 of U.S. Pat. No. 8,349,891, U.S. Pat. No. 8,735,447, and WO 2012/064838. In some embodiments, the crystalline form (e.g., Form A) of Form A 6-O-(4-dimethylaminoethoxy)cinnamoyl fumagillol, free base is characterized by a melting point of about 83° C., for example, and characterized by a differential scanning calorimetry profile with an endotherm at about 83.1° C. […] The solubility of Form A in solvent (e.g., an aqueous solution that may include a buffer) with a pH greater or equal to about 8.0 may be less than about 0.2 mg/mL at ca. 20° C.

Take `CO[C@@H]1[C@H](OC(=O)/C=C/c2ccc(OCCN(C)C)cc2)CC[C@]2(CO2)[C@H]1[C@@]1(C)O[C@@H]1CC=C(C)C` [NAT]: the “crystallinity and polymorphic form after jet milling” value (from here on “crystallinity and polymorphic form”) in data set [1] was “retained its crystallinity and polymorphic form”. Further, in data set [2], the D10 amounted to 1.7 µm, the D50 is 9.4 µm and the D90 came to 25.1 µm.
In data set [2], `CO[C@@H]1[C@H](OC(=O)/C=C/c2ccc(OCCN(C)C)cc2)CC[C@]2(CO2)[C@H]1[C@@]1(C)O[C@@H]1CC=C(C)C` [FPS/2] yielded a D10 of 1.1 µm, a D50 of 3 µm and a D90 of 6.9 µm.
As to `CO[C@@H]1[C@H](OC(=O)/C=C/c2ccc(OCCN(C)C)cc2)CC[C@]2(CO2)[C@H]1[C@@]1(C)O[C@@H]1CC=C(C)C` [Form C, 6-O-(4-dimethylaminoethoxy) cinnamoyl fumagillol], the “conversion of crystalline form on storage” value in the data set “Storage of Form C” is on record as “converts or reverts to Form A”.
In data set [2], `CO[C@@H]1[C@H](OC(=O)/C=C/c2ccc(OCCN(C)C)cc2)CC[C@]2(CO2)[C@H]1[C@@]1(C)O[C@@H]1CC=C(C)C` [FPS/1] registered a D10 of 1.1 µm, a D50 of 2.4 µm and a D90 of 5.2 µm.
For `CO[C@@H]1[C@H](OC(=O)/C=C/c2ccc(OCCN(C)C)cc2)CC[C@]2(CO2)[C@H]1[C@@]1(C)O[C@@H]1CC=C(C)C` [FPS/3], in that order: 1.2 µm, 3.9 µm and 9.5 µm.
On to `CO[C@@H]1[C@H](OC(=O)/C=C/c2ccc(OCCN(C)C)cc2)CC[C@]2(CO2)[C@H]1[C@@]1(C)O[C@@H]1CC=C(C)C` [FPS/5], for which, in data set [1], the “crystallinity and polymorphic form” value is “crystalline and the desired polymorph”. In data set [2], the D10 was determined as 1.2 µm, the D50 was found to be 6.1 µm and the D90 was found to be 14.3 µm.
A word on the solubility: it is how much of the substance goes into solution per volume. As to `CO[C@@H]1[C@H](OC(=O)/C=C/c2ccc(OCCN(C)C)cc2)CC[C@]2(CO2)[C@H]1[C@@]1(C)O[C@@H]1CC=C(C)C` [ZGN-440, 6-O-(4-dimethylaminoethoxy) cinnamoyl fumagillol], the solubility in the data set “physchem” (20 °C, organic solvent or mixture) was ~25 mg/mL (≈ 50 mM); in “physchem” (20 °C, pH 8, aqueous buffer), < 0.2 mg/mL; in “physchem” (50 °C, organic solvent or mixture), ~102 mg/mL (≈ 204 mM). In addition, the “crystallinity and polymorphic form” value in data set [1] is “retains its crystallinity and its polymorphic structure”. For the same compound, the polymorphic form result in data set [1] (suspended in different aqueous diluents (e.g., for extended times) or jet milled or microfluidized) was “no change in the polymorphic form”. In addition, the “initial D90” value in data set [2] (prior to jet milling) was determined as 211.9 μm.
Consider `CO[C@@H]1[C@H](OC(=O)/C=C/c2ccc(OCCN(C)C)cc2)CC[C@]2(CO2)[C@H]1[C@@]1(C)O[C@@H]1CC=C(C)C` [FPS/4], for which, in data set [2], the D10 is 1.5 µm, the D50 turned out to be 6.5 µm and the D90 amounted to 13.2 µm.
